# Experiments:
# [1] = TD NMR relaxation time measurements (SE-CPMG, multicomponent fitting); assay type: physicochemical; conditions: for 1/<1/T2e>: harmonic average relaxation time of the mobile components
# Source text: TD NMR, also known as NMR relaxometry, is a known NMR technique and relies on measuring the relaxation times of the nuclear spin system instead of frequency-domain spectra. […] Also, sample preparation is much simpler as there are no concerns about sample homogeneity and no solvents are needed.
# Like that, a clear distinction between protons in a solid, amorphous and liquid component can be made with good accuracy.
# Bitumen 20/30 was rejuvenated with some of the here claimed rejuvenating agents according to example 1. The pure bitumen 20/30 as well as the rejuvenated bitumen 20/30 samples were then analyzed by TD NMR. To do so, all samples were heated up to 80° C. to allow filling of the samples into NMR tubes. After that, TD NMR measurements at 30° C., 80° C. and 140° C. were conducted using the SE-CMPG sequence. This sequence consists of a solid echo combined with a so-called CPMG (Carr-Purcell-Meiboom-Gill) train of subsequent spin echoes with alternating phase and is capable of recording the decay of coherence in the transverse nuclear magnetization over about 5 orders of magnitude in time. Depending on the measurement temperature, the experimental data were then fitted with semi-empirically selected multicomponent models involving several Gaussian and exponential components:
# S(t)=[pg1 exp(−(t/T2g1)^2)+pg2 exp(−(t/T2g2)^2)]+pe1 exp(−t/T2e1)[pe2 exp(−t/T2e2)+pe3 exp(−t/T2e3)]
# In order to assess the effect of temperature on the molecular mobility of the bitumen, experiments were conducted at temperatures of 30° C., 80° C. and 140° C., and the following models turned out to provide adequate fits of the respective normalized signal decay curves: • two Gaussians and one exponential at 30° C., • two Gaussians and two exponentials at 80° C., • three exponentials at 140° C.
# From the fitting, different values can be obtained: • The p values (pg1, pg2, pe1, pe2 and pe3), indicating the signal fraction of the individual component scaled in the range from 0 to 1 • The T2 values (T2g1, T2g2, T2e1, T2e2 and T2e3), indicating the relaxation times that correspond to each of the individual components. The longer the relaxation time, the higher the molecular mobility of the respective component • In addition to the values T2e1, T2e2 and T2e3, we also calculated the average relaxation time of the mobile components, 1/<1/T2e>, for the temperatures at which more than one mobile component exist (80 and 140° C.). 1/<1/T2e> Is calculated as the harmonic average of the relaxation times involved:
# [formula] • The type of the component, those being: • g1: the rigid component • g2: the partially mobile component • e1, e2 and e3: mobile components with increasingly high local molecular mobilities
# It is believed that the rigid component g1 is directly correlated with the amount of the asphaltene aggregates. The mobile component(s) on the other hand can be attributed to the maltene phase.
# [2] = MSCR elastic recovery of rejuvenated aged bitumen; assay type: physicochemical; conditions: aged bitumen 50/70 PCK Schwedt + 5% compound
# [3] = assay type: physicochemical; conditions: aged bitumen 50/70 PCK Schwedt + 5% compound
# [4] = 30° C., bitumen 20/30 + additive
# [5] = 80° C., bitumen 20/30 + additive
# [6] = 140° C., bitumen 20/30 + additive
substance,measurement,setting,value
Polypropylenglycol bis glycidylether,T2e1,[1]; [4],0.20 ms
same,T2g1,[1]; [4],0.016 ms
same,T2g2,[1]; [4],0.044 ms
same,pe1,"[1]; 30° C., mobile component, bitumen 20/30 + additive",0.41
same,pg2,"[1]; 30° C., partially mobile component, bitumen 20/30 + additive",0.18
same,pg1,"[1]; 30° C., signal fraction of rigid component, bitumen 20/30 + additive",0.40
same,T2e1,[1]; [5],0.47 ms
same,T2e2,[1]; [5],2.42 ms
same,T2g1,[1]; [5],0.017 ms
same,T2g2,[1]; [5],0.053 ms
same,pe1,[1]; [5],0.46
same,pe2,[1]; [5],0.35
same,pg1,[1]; [5],0.10
same,pg2,[1]; [5],0.078
same,1/<1/T2e>,[1]; 80° C.,0.72 ms
same,T2e1,[1]; [6],0.20 ms
same,T2e2,[1]; [6],4.45 ms
same,T2e3,[1]; [6],24.51 ms
same,pe1,[1]; [6],0.18
same,pe2,[1]; [6],0.47
same,pe3,[1]; [6],0.34
same,1/<1/T2e>,[1]; 140° C.,0.94 ms
same,MSCR % Rec. (0.1 kPa),[2]; 0.1 kPa,5%
same,MSCR % Rec. (1.6 kPa),[2]; 1.6 kPa,1%
same,MSCR % Rec. (3.2 kPa),[2]; 3.2 kPa,0%
same,η(135° C.) [mPas],[3],800 mPas

# Source: US20230220206A1, “REJUVENATING AGENTS FOR ASPHALT RECYCLING” (BASF SE, priority 2020, published 2023)
